Measured values from ChEMBL document CHEMBL1201862, “PubChem BioAssay data set” (2004).
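Exposure lasted 48 hours, with cells grown in 96-well plates and compounds tested at five concentrations. GI50 marks 50% less growth.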 Active and inactive are the calls of the source. No stated cut-off is given here; in the data, active = GI50 up to about 1.1 µM and inactive = higher. *1 amine or outer side, *2 acyl side, *3 side chain or, on linkers, in order; H or OH if unused. Where a SMILES comes first, the peptide text is derived from it. Bridges are numbered along the chain shown (N, C = ends). [ ]: non-standard residue; d: D form. The star is where a group is joined. X56 = CC(C)C(C)C(C(=O)[*:2])N(C)[*:1]; Picolinoyl(3-OH) = O=C(c1ncccc1O)*; NMePhg = CN[CH](C(=O)O)c1ccccc1; Hyp = O=C(O)[CH]1C[CH](O)CN1; Sar = CNCC(=O)O

Experiments:
Assay in all cases: NCI tumour cell line growth inhibition, 48 h
M14 = tested on: M14
KM12 = tested on: KM12
OVCAR-8 = tested on: OVCAR-8
DLD-1 = tested on: DLD-1
KM-20L2 = tested on: KM-20L2
IGROV-1 = tested on: IGROV-1
SN12C = tested on: SN12C
HL-60 = tested on: HL-60
K562 = tested on: K562
SF-268 = tested on: SF-268
EKVX = tested on: EKVX
LOX IMVI = tested on: LOX IMVI
DMS-114 = tested on: DMS-114
SNB-78 = tested on: SNB-78
HOP-18 = tested on: HOP-18
SNB-19 = tested on: SNB-19
SK-OV-3 = tested on: SK-OV-3
SK-MEL-28 = tested on: SK-MEL-28

Measured: GI50

C=CCCC(=O)CC(=O)OCc1ccccc1
inactive: M14 > 100 µM | KM12 > 100 µM | OVCAR-8 > 100 µM | DLD-1 > 100 µM | KM-20L2 > 100 µM | IGROV-1 > 100 µM | SN12C > 100 µM | HL-60 > 100 µM | K562 > 100 µM | SF-268 > 100 µM | EKVX > 100 µM | LOX IMVI > 100 µM | DMS-114 > 100 µM | SNB-78 > 100 µM | HOP-18 > 100 µM | SNB-19 > 100 µM | SK-OV-3 > 100 µM

N#CC(Nc1cccc(C(F)(F)F)c1)c1ccccc1C(F)(F)F (stereo unspecified)
inactive: M14 7.29 µM | KM12 7.52 µM | OVCAR-8 16.3 µM | SK-MEL-28 17.9 µM | DLD-1 15.9 µM | KM-20L2 13.8 µM | IGROV-1 22.7 µM | SN12C 7.4 µM | HL-60 4.9 µM | K562 14.5 µM | SF-268 17.2 µM | EKVX 15.4 µM | LOX IMVI 5.51 µM | DMS-114 8.91 µM | SNB-78 20.1 µM | HOP-18 13.5 µM | SNB-19 17.3 µM | SK-OV-3 17.6 µM

CSCC[C@@H]1C(=O)N(C)[C@H](C(C)(C)C)N1C(=O)c1ccccc1
inactive: KM12 > 100 µM | OVCAR-8 > 100 µM | SK-MEL-28 > 100 µM | DLD-1 > 100 µM | KM-20L2 > 100 µM | IGROV-1 > 100 µM | SN12C > 100 µM | HL-60 > 100 µM | K562 > 100 µM | SF-268 > 100 µM | EKVX > 100 µM | LOX IMVI > 100 µM | DMS-114 > 100 µM | SNB-78 > 100 µM | HOP-18 > 100 µM | SNB-19 > 100 µM | SK-OV-3 > 100 µM

NC1=NN(c2ccccc2)C(=O)C1C(=O)C(=O)Nc1ccc(Cl)cc1 (stereo unspecified)
inactive: M14 > 100 µM | KM12 > 100 µM | OVCAR-8 > 100 µM | SK-MEL-28 > 100 µM | DLD-1 > 100 µM | KM-20L2 > 100 µM | IGROV-1 > 100 µM | SN12C > 100 µM | HL-60 > 100 µM | K562 > 100 µM | SF-268 > 100 µM | EKVX > 100 µM | LOX IMVI > 100 µM | DMS-114 > 100 µM | SNB-78 > 100 µM | HOP-18 > 100 µM | SK-OV-3 > 100 µM

CC(C)c1cccc(C(C)C)c1NC(=O)C(=O)C1CCC2=C(Sc3ccccc3N2)C1=O (stereo unspecified)
inactive: M14 > 100 µM | KM12 > 100 µM | OVCAR-8 38.7 µM | SK-MEL-28 > 100 µM | DLD-1 > 100 µM | KM-20L2 86.3 µM | IGROV-1 > 100 µM | SN12C 28.8 µM | HL-60 74.1 µM | K562 34.9 µM | SF-268 > 100 µM | EKVX > 100 µM | LOX IMVI 53.6 µM | DMS-114 52.8 µM | SNB-78 > 100 µM | HOP-18 > 100 µM | SNB-19 > 100 µM | SK-OV-3 60.8 µM

CCCSCC(P(=O)(O)O)P(=O)(O)O.NC1CCCCC1
inactive: KM12 7.46 µM | OVCAR-8 > 100 µM | SK-MEL-28 > 100 µM | DLD-1 > 100 µM | KM-20L2 > 100 µM | IGROV-1 > 100 µM | SN12C > 100 µM | HL-60 > 100 µM | K562 > 100 µM | SF-268 > 100 µM | EKVX > 100 µM | LOX IMVI > 100 µM | DMS-114 > 100 µM | SNB-78 > 100 µM | HOP-18 > 100 µM | SNB-19 > 100 µM | SK-OV-3 > 100 µM

CC(C)CC1NC(=O)C(NC(=O)c2ncccc2O)C(C)OC(=O)C(c2ccccc2)N(C)C(=O)C(C)NC(=O)C(C(C)C(C)C)N(C)C(=O)CN(C)C(=O)C2CC(O)CN2C1=O (stereo unspecified) ({Picolinoyl(3-OH)}-TL[Hyp][Sar][X56]A[NMePhg]; ester 1-C; configuration not given here)
inactive: KM12 80.4 µM | OVCAR-8 15.7 µM | SK-MEL-28 102 µM | DLD-1 82.4 µM | KM-20L2 7.93 µM | IGROV-1 23.8 µM | SN12C 65.8 µM | HL-60 58.9 µM | K562 61.8 µM | SF-268 51.3 µM | EKVX 10.1 µM | LOX IMVI > 125 µM | DMS-114 > 119 µM | SNB-78 > 125 µM | HOP-18 83.6 µM | SNB-19 115 µM | SK-OV-3 > 125 µM
